Experimental data: patent US6579718B1, “Carbazolylvinyl dye protein stains” (Molecular Probes, Inc., priority 2000, dated 2003)

System: proteins
Assay: Staining protein gels with dye in the running buffer (Example 30)
Conditions: running buffer with 0.05% SDS and 1-3 μM dye
Description: The proteins of interest are prepared for loading on standard SDS gels, using standard methods. Dilution series of known molecular weight markers, or proteins of unknown concentration, or protein mixtures of unknown composition are used. The gels are loaded and run under standard conditions, excepting that the running buffer contains 0.05% SDS and 1-3 μM Compound 9. The stained gels are either photographed directly after electrophoresis or are destained in 7.5% acetic acid or phosphate-buffered saline for 20-50 minutes to remove background staining prior to photography. […] In addition, the migration of protein bands can be monitored through the glass plates that support the gel, during electrophoresis. Such monitoring can either be calorimetric, since the stained protein bands are visually colored, or can be via fluorescence, if the excitation source is at visible wavelengths (such as a laser or mercury-arc lamp, for example).

## CCn1c2ccccc2c2cc(/C=C/c3cc[n+](CCCCS(=O)(=O)[O-])c4ccccc34)ccc21 [Compound 9]
  Sensitivity compared with staining gels after electrophoresis: about the same
